Test results as given in publication PMC9298201, “4‐Sulfamoylphenylalkylamides as Inhibitors of Carbonic Anhydrases Expressed in Vibrio cholerae” (Chemmedchem, 2021).
Where “and” joins values, the source holds several entries; their conditions need not be identical. Identical values can stand only once. Like-named read-outs stand apart in the source and are kept apart here.

How the values were obtained:
hCA I = target: T1, hCA I (Homo sapiens, UniProt P00915); assay: stopped-flow CO2 hydrase assay, hCA I; format: biochemical
T1 construct: made in house
T1 sequence (P00915 whole entry): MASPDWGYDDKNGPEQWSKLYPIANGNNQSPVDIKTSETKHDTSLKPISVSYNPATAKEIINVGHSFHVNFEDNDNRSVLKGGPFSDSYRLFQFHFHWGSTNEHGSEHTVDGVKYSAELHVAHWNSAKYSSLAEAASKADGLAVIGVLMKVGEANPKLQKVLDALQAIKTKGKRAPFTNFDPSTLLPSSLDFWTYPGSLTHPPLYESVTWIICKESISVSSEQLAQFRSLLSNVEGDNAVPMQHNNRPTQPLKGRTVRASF
Protocol: (§1) The uncatalyzed rates were determined in the same manner and subtracted from the total observed rates.

hCA II = target: T2, hCA II (Homo sapiens, UniProt P00918); assay: stopped-flow CO2 hydrase assay, hCA II; format: biochemical; conditions: errors ±10 %, three assays
T2 construct: made in house
Protocol: as §1

VchCAβ = VchCAβ (Vibrio cholerae, UniProt A0A086SLX8); assay: biochemical
Chain of VchCAβ (A0A086SLX8 entry or part of it): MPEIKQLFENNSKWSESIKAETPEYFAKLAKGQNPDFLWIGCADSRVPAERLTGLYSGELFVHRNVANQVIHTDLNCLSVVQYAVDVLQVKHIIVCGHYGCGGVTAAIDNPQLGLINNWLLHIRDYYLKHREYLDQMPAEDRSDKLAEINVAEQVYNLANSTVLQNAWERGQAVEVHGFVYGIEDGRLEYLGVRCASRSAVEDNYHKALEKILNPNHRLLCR

VchCAγ = VchCAγ (Vibrio cholerae, UniProt Q9KVT1); assay: stopped-flow CO2 hydrase assay, VchCAγ; format: biochemical
Chain of VchCAγ (Q9KVT1 1-184): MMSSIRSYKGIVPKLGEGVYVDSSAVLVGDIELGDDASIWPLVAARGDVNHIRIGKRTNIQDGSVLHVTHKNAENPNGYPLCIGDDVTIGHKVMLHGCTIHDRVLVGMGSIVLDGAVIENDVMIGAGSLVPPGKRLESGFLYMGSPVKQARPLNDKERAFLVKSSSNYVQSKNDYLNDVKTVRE

VchCAα = VchCAα (Vibrio cholerae, UniProt Q9KMP6); assay: stopped-flow CO2 hydrase assay, VchCAα; format: biochemical
Chain of VchCAα (Q9KMP6 entry or part of it): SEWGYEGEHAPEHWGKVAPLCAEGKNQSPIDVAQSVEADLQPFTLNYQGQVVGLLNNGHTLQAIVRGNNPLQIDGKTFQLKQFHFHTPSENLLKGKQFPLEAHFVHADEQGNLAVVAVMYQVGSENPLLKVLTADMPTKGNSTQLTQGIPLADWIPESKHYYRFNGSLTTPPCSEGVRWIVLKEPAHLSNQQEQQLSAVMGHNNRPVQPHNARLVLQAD

Vibrio cholerae = system: Vibrio cholerae; design: method as in PMID 26235676, PMID 27283786, PMID 23488877; conditions: thus reducing the growth rates of pathogen; cited from earlier work

| Structure (SMILES) | Ki (hCA I) [nM] | Ki (hCA II) | melting point [°C] | Ki (VchCAβ) [nM] | Ki (VchCAγ) [nM] | Ki (VchCAα) [nM] | Ki (VchCAγ; stopped-flow CO2 hydrase assay, errors ±10 %, three assays, read-out: Ki VchCA γ) [nM] | effect on bicarbonate mediated virulence gene induction (Vibrio cholerae) | fold more selective (VchCAγ) over hCA I (VchCAγ; selectivity VchCAγ vs hCA I) [fold] | fold more selective (VchCAγ) over hCA II (VchCAγ; selectivity VchCAγ vs hCA II) [fold] | fold more active against VchCAα over hCA I (VchCAα; selectivity VchCAα vs hCA I) [fold] |
| --- | --- | --- | --- | --- | --- | --- | --- | --- | --- | --- | --- |
| CC(C)[C@H](NC(=O)c1ccco1)C(=O)NCc1ccc(S(N)(=O)=O)cc1 [compound 41, (S)‐N‐(3‐Methyl‐1‐oxo‐1‐((4‐sulfamoylbenzyl)amino)butan‐2‐yl)furan‐2‐carboxamide] | 215 | 19.6 nM | 226 to 228 | 707 | 95.3 | 97.8 |  |  |  |  |  |
| CC(C)[C@H](N)C(=O)Nc1ccc(S(N)(=O)=O)cc1 [compound 12, (S)‐2‐amino‐3‐methyl‐N‐(4‐sulfamoylphenyl)butanamide] | 609 | 183 nM |  | 362 | 88.6 | 659 |  |  |  |  |  |
| NS(=O)(=O)c1ccc(NC(=O)CNC(=O)c2cccs2)cc1 [compound 32, N‐(2‐Oxo‐2‐((4‐sulfamoylphenyl)amino)ethyl)thiophene‐2‐carboxamide] | 430 | 38.5 nM | 265 to 267 | 636 | 6020 | 4.8 |  |  |  |  |  |
| NCC(=O)Nc1ccc(S(N)(=O)=O)cc1 [compound 10, 2‐amino‐N‐(4‐sulfamoylphenyl)acetamide] |  |  |  | 3170 |  | 8 | 744 |  |  |  |  |
| CC(C)[C@H](NC(=O)c1ccccc1)C(=O)NCc1ccc(S(N)(=O)=O)cc1 [compound 38, (S)‐N‐(3‐Methyl‐1‐oxo‐1‐((4‐sulfamoylbenzyl)amino)butan‐2‐yl)benzamide] | 505 | 170 nM | 213 to 215 | 94.6 | 332 | 37.6 |  |  |  |  |  |
| NS(=O)(=O)c1ccc(NC(=O)CNC(=O)c2ccco2)cc1 [compound 31, N‐(2‐Oxo‐2‐((4‐sulfamoylphenyl)amino)ethyl)furan‐2‐carboxamide] | 621 | 22.2 nM | 238 to 240 | 460 | 7750 | 6.8 |  |  |  |  |  |
| NS(=O)(=O)c1ccc(CNC(=O)CNC(=O)c2ccccc2)cc1 [compound 36, N‐(2‐Oxo‐2‐((4‐sulfamoylbenzyl)amino)ethyl)benzamide] | 754 | 368 nM | 211 to 213 | 82.8 | 230 | 8.2 |  |  |  |  |  |
| NS(=O)(=O)c1ccc(NC(=O)CNC(=O)c2cccc(Cl)c2)cc1 [compound 21, 3‐Chloro‐N‐(2‐oxo‐2‐((4‐sulfamoylphenyl)amino)ethyl)benzamide] | 127 | 14.7 nM | 262 to 264 | 82.8 | 364 | 18.5 |  |  |  |  |  |
| CCOc1ccc2nc(S(N)(=O)=O)sc2c1 [EZA, ethoxzolamide] |  |  |  |  |  |  |  | suppressed bicarbonate mediated virulence gene induction |  |  |  |
| NS(=O)(=O)c1ccc(CNC(=O)CNC(=O)c2ccco2)cc1 [compound 39, N‐(2‐Oxo‐2‐((4‐sulfamoylbenzyl)amino)ethyl)furan‐2‐carboxamide] | 1440 | 316 nM |  | 394 | 734 | 35.7 |  |  |  |  |  |
| C[C@H](NC(=O)c1cccs1)C(=O)NCc1ccc(S(N)(=O)=O)cc1 [compound 43, (S)‐N‐(1‐Oxo‐1‐((4‐sulfamoylbenzyl)amino)propan‐2‐yl)thiophene‐2‐carboxamide] | 651 | 71.1 nM | 221 to 223 | 691 | 93.2 | 63.1 |  |  |  |  |  |
| NS(=O)(=O)c1ccc(NC(=O)CNC(=O)c2ccc(Cl)cc2)cc1 [compound 22, 4‐Chloro‐N‐(2‐oxo‐2‐((4‐sulfamoylphenyl)amino)ethyl)benzamide] | 81.3 | 3.3 nM | 226 to 228 | 59.7 | 282 | 9.6 |  |  |  |  |  |
| C[C@H](NC(=O)c1ccccc1)C(=O)NCc1ccc(S(N)(=O)=O)cc1 [compound 37, (S)‐N‐(1‐Oxo‐1‐((4‐sulfamoylbenzyl)amino)propan‐2‐yl)benzamide] | 722 | 302 nM | 178 to 180 | 93.3 | 261 | 56.5 |  |  |  |  |  |
| CC(C)[C@H](NC(=O)c1cccs1)C(=O)NCc1ccc(S(N)(=O)=O)cc1 [compound 44, (S)‐N‐(3‐Methyl‐1‐oxo‐1‐((4‐sulfamoylbenzyl)amino)butan‐2‐yl)thiophene‐2‐carboxamide] | 94.9 | 18.4 nM | 144 to 146 | 94.4 | 84.8 | 30.5 |  |  |  |  |  |
| NS(=O)(=O)c1ccc(NC(=O)CNC(=O)c2ccccc2)cc1 [compound 13, (S)‐N‐(2‐Oxo‐2‐((4‐sulfamoylphenyl)amino)ethyl)benzamide] | 524 | 19.9 nM | 214 to 216 | 884 | 563 | 0.4 |  |  |  |  |  |
| NS(=O)(=O)c1ccc(CNC(=O)CNC(=O)c2cccs2)cc1 [compound 42, N‐(2‐Oxo‐2‐((4‐sulfamoylbenzyl)amino)ethyl)thiophene‐2‐carboxamide] | 828 | 87.3 nM | 220 to 222 | 627 | 244 | 9.3 |  |  |  |  |  |
| CC(C)[C@H](NC(=O)c1ccccc1)C(=O)Nc1ccc(S(N)(=O)=O)cc1 [compound 15, (S)‐N‐(3‐methyl‐1‐oxo‐1‐((4‐sulfamoylphenyl)amino)butan‐2‐yl)benzamide] | 51.5 | 3.7 nM | 279 to 280 | 389 | 24.3 | 9.2 |  |  |  |  |  |
| C[C@H](NC(=O)c1ccco1)C(=O)NCc1ccc(S(N)(=O)=O)cc1 [compound 40, (S)‐N‐(1‐Oxo‐1‐((4‐sulfamoylbenzyl)amino)propan‐2‐yl)furan‐2‐carboxamide] | 6280 | 6100 nM and 6090 nM |  | 612 | 92.8 | 8.5 |  |  | ~70 | ~70 | ~730 |
| NS(=O)(=O)c1ccc(NC(=O)CNC(=O)c2ccccc2Cl)cc1 [compound 20, 2‐Chloro‐N‐(2‐oxo‐2‐((4‐sulfamoylphenyl)amino)ethyl)benzamide] | 564 | 29.6 nM | 249 to 251 | 796 | 8930 | 8.9 |  |  |  |  |  |
| C[C@H](NC(=O)c1ccccc1)C(=O)Nc1ccc(S(N)(=O)=O)cc1 [compound 14, (S)‐N‐(1‐oxo‐1‐((4‐sulfamoylphenyl)amino)propan‐2‐yl)benzamide] | 46.1 | 4.4 nM | 260 to 261 | 3000 | 80.5 | 9.5 |  |  |  |  |  |
| C[C@H](N)C(=O)Nc1ccc(S(N)(=O)=O)cc1 [compound 11, (S)‐2‐Amino‐N‐(4‐sulfamoylphenyl)propanamide] | 869 | 383 nM | 216 to 217 | 381 | 23.7 | 35.7 |  |  |  |  |  |
